≈ marks a conversion by molar mass, not a printed value. Read-outs that look alike come from different tables or passages of the source. Positions of bridges follow the written chain, without caps; N, C: chain ends. Non-standard residues stand in square brackets, D forms with d. Residues, ends and D or L forms follow the SMILES beside them. *: point of attachment. CH2CH2OBz(4-tBu) = CC(C)(C)c1ccc(C(=O)OCC*)cc1; Ethyl(2-decanoyloxy) = CCCCCCCCCC(=O)OCC*; Ethyl(2-butanoyloxy) = CCCC(=O)OCC*; Ethyl(2-propionyloxy) = CCC(=O)OCC*; Ethyl(2-OPiv) = CC(C)(C)C(=O)OCC*; Ethyl(2-OBz) = O=C(OCC*)c1ccccc1; Dab = NCC[C@H](N)C(=O)O
Columns and labels:
E. coli ATCC 25922 = type: cell-based, Escherichia coli
Description: (§1) All 81 compounds prepared in Examples 2 and 3 underwent screening against a panel of Gram-negative bacterium to assess their ability to inhibit bacterial growth. […] The median value is presented.

A. baumannii ATCC 19606 = type: cell-based, Acinetobacter baumannii
Description: as §1

P. aeruginosa ATCC 27853 = type: cell-based, Pseudomonas aeruginosa
Description: as §1

K. pneumoniae ATCC 33495 = type: cell-based, Klebsiella pneumoniae
Description: as §1

[1] = test system: K. pneumoniae ATCC 700603; type: cell-based, Klebsiella pneumoniae
Description: as §1

[2] = test system: K. pneumoniae ATCC MS6671; type: cell-based, Klebsiella pneumoniae
Description: as §1

E. coli ATCC MS8345 = type: cell-based, Escherichia coli
Description: as §1
Expansion of the polymyxin macrocycle by substituting […]) offered little advantage in antimicrobial activity but was generally well tolerated although for A. baumanni and P. aeruginosa this was detrimental.

Structure (SMILES) | MIC E. coli ATCC 25922 (E. coli ATCC 25922; ATCC 25922) | MIC A. baumannii ATCC 19606 (A. baumannii ATCC 19606; ATCC 19606) | MIC P. aeruginosa ATCC 27853 (P. aeruginosa ATCC 27853; ATCC 27853) | MIC K. pneumoniae ATCC 33495 (K. pneumoniae ATCC 33495; ATCC 33495) | MIC K. pneumoniae ATCC 700603 ([1]; ATCC 700603) | MIC K. pneumoniae ATCC MS6671 ([2]; ATCC MS6671) | MIC E. coli ATCC MS8345 (E. coli ATCC MS8345; ATCC MS8345) | MIC E. coli ATCC 25922 (E. coli ATCC 25922; median of triplicate) | MIC A. baumannii ATCC 19606 (A. baumannii ATCC 19606; median of triplicate) | MIC P. aeruginosa ATCC 27853 (P. aeruginosa ATCC 27853; median of triplicate) | MIC K. pneumoniae ATCC 33495 (K. pneumoniae ATCC 33495; median of triplicate) | MIC K. pneumoniae ATCC 700603 ([1]; median of triplicate) | MIC K. pneumoniae ATCC MS6671 ([2]; median of triplicate) | MIC E. coli ATCC MS8345 (E. coli ATCC MS8345; colistin-resistant strain, median of triplicate)
CCC(=O)OCCSC[C@H](N)C(=O)N[C@@H](CCN)C(=O)N[C@H](C(=O)N[C@@H](CCN)C(=O)N[C@H]1CCCCNC(=O)[C@H]([C@@H](C)O)NC(=O)[C@H](CCN)NC(=O)[C@H](CCN)NC(=O)[C@H](CC(C)C)NC(=O)[C@@H](Cc2ccccc2)NC(=O)[C@H](CCN)NC1=O)[C@@H](C)O [Compound 23] (H-C(Ethyl(2-propionyloxy))[Dab]T[Dab]K[Dab][dF]L[Dab][Dab]T; lactam 5-C) | 4 µg/mL (≈ 3.09 µM) | >32 µg/mL | >32 µg/mL | 4 µg/mL (≈ 3.09 µM) | >32 µg/mL | >32 µg/mL | >32 µg/mL |  |  |  |  |  |  | 
CCCC(=O)OCCSC[C@H](N)C(=O)N[C@@H](CCN)C(=O)N[C@H](C(=O)N[C@@H](CCN)C(=O)N[C@H]1CCCCNC(=O)[C@H]([C@@H](C)O)NC(=O)[C@H](CCN)NC(=O)[C@H](CCN)NC(=O)[C@H](CC(C)C)NC(=O)[C@@H](Cc2ccccc2)NC(=O)[C@H](CCN)NC1=O)[C@@H](C)O [Compound 24] (H-C(Ethyl(2-butanoyloxy))[Dab]T[Dab]K[Dab][dF]L[Dab][Dab]T; lactam 5-C) | 2 µg/mL (≈ 1.53 µM) | >32 µg/mL | >32 µg/mL | 1 µg/mL (≈ 0.764 µM) |  | >32 µg/mL | >32 µg/mL |  |  |  |  |  |  | 
CC(C)C[C@@H]1NC(=O)[C@@H](Cc2ccccc2)NC(=O)[C@H](CCN)NC(=O)[C@@H](NC(=O)[C@H](CCN)NC(=O)[C@@H](NC(=O)[C@H](CCN)NC(=O)[C@@H](N)CSCCOC(=O)c2ccccc2)[C@@H](C)O)CCCCNC(=O)[C@H]([C@@H](C)O)NC(=O)[C@H](CCN)NC(=O)[C@H](CCN)NC1=O [Compound 27] (H-C(Ethyl(2-OBz))[Dab]T[Dab]K[Dab][dF]L[Dab][Dab]T; lactam 5-C) |  |  |  |  |  |  |  | 1 µg/mL (≈ 0.745 µM) | >32 µg/mL | >32 µg/mL | 0.5 µg/mL (≈ 0.372 µM) | 2 to 4 µg/mL | >32 µg/mL | >32 µg/mL

The next lines start with results.

MIC E. coli ATCC 25922 (E. coli ATCC 25922; ATCC 25922) | MIC A. baumannii ATCC 19606 (A. baumannii ATCC 19606; ATCC 19606) | MIC P. aeruginosa ATCC 27853 (P. aeruginosa ATCC 27853; ATCC 27853) | MIC K. pneumoniae ATCC 33495 (K. pneumoniae ATCC 33495; ATCC 33495) | MIC K. pneumoniae ATCC 700603 ([1]; ATCC 700603) | MIC K. pneumoniae ATCC MS6671 ([2]; ATCC MS6671) | MIC E. coli ATCC MS8345 (E. coli ATCC MS8345; ATCC MS8345) | Structure (SMILES) | MIC E. coli ATCC 25922 (E. coli ATCC 25922; median of triplicate) | MIC A. baumannii ATCC 19606 (A. baumannii ATCC 19606; median of triplicate) | MIC P. aeruginosa ATCC 27853 (P. aeruginosa ATCC 27853; median of triplicate) | MIC K. pneumoniae ATCC 33495 (K. pneumoniae ATCC 33495; median of triplicate) | MIC K. pneumoniae ATCC 700603 ([1]; median of triplicate) | MIC K. pneumoniae ATCC MS6671 ([2]; median of triplicate) | MIC E. coli ATCC MS8345 (E. coli ATCC MS8345; colistin-resistant strain, median of triplicate)
2 µg/mL (≈ 1.44 µM) | >32 µg/mL | 0.5 µg/mL (≈ 0.359 µM) | 0.5 µg/mL (≈ 0.359 µM) | 2 µg/mL (≈ 1.44 µM) | >32 µg/mL | 16 to 32 µg/mL | CCCCCCCCCC(=O)OCCSC[C@H](N)C(=O)N[C@@H](CCN)C(=O)N[C@H](C(=O)N[C@@H](CCN)C(=O)N[C@H]1CCCCNC(=O)[C@H]([C@@H](C)O)NC(=O)[C@H](CCN)NC(=O)[C@H](CCN)NC(=O)[C@H](CC(C)C)NC(=O)[C@@H](Cc2ccccc2)NC(=O)[C@H](CCN)NC1=O)[C@@H](C)O [Compound 25] (H-C(Ethyl(2-decanoyloxy))[Dab]T[Dab]K[Dab][dF]L[Dab][Dab]T; lactam 5-C) |  |  |  |  |  |  | 
1 µg/mL (≈ 0.756 µM) | >32 µg/mL | >32 µg/mL | 0.5 µg/mL (≈ 0.378 µM) | 16 µg/mL (≈ 12.1 µM) | >32 µg/mL | >32 µg/mL | CC(C)C[C@@H]1NC(=O)[C@@H](Cc2ccccc2)NC(=O)[C@H](CCN)NC(=O)[C@@H](NC(=O)[C@H](CCN)NC(=O)[C@@H](NC(=O)[C@H](CCN)NC(=O)[C@@H](N)CSCCOC(=O)C(C)(C)C)[C@@H](C)O)CCCCNC(=O)[C@H]([C@@H](C)O)NC(=O)[C@H](CCN)NC(=O)[C@H](CCN)NC1=O [Compound 26] (H-C(Ethyl(2-OPiv))[Dab]T[Dab]K[Dab][dF]L[Dab][Dab]T; lactam 5-C) |  |  |  |  |  |  | 
2 µg/mL (≈ 1.43 µM) | 4 µg/mL (≈ 2.86 µM) | 1 µg/mL (≈ 0.715 µM) | 0.5 µg/mL (≈ 0.357 µM) | 4 µg/mL (≈ 2.86 µM) | >32 µg/mL | 32 µg/mL (≈ 22.9 µM) | CC(C)C[C@@H]1NC(=O)[C@@H](Cc2ccccc2)NC(=O)[C@H](CCN)NC(=O)[C@@H](NC(=O)[C@H](CCN)NC(=O)[C@@H](NC(=O)[C@H](CCN)NC(=O)[C@@H](N)CSCCOC(=O)c2ccc(C(C)(C)C)cc2)[C@@H](C)O)CCCCNC(=O)[C@H]([C@@H](C)O)NC(=O)[C@H](CCN)NC(=O)[C@H](CCN)NC1=O [Compound 28] (H-C(CH2CH2OBz(4-tBu))[Dab]T[Dab]K[Dab][dF]L[Dab][Dab]T; lactam 5-C) |  |  |  |  |  |  | 
0.5 µg/mL (≈ 0.39 µM) | 2 µg/mL (≈ 1.56 µM) | 2 µg/mL (≈ 1.56 µM) | 0.125 µg/mL (≈ 0.0976 µM) | 0.5 µg/mL (≈ 0.39 µM) | >32 µg/mL | 32 µg/mL (≈ 25 µM) | CCCC(=O)OCCSC[C@H](N)C(=O)N[C@@H](CCN)C(=O)N[C@H](C(=O)N[C@@H](CCN)C(=O)N[C@H]1CCNC(=O)[C@H]([C@@H](C)O)NC(=O)[C@H](CCN)NC(=O)[C@H](CCN)NC(=O)[C@H](CC(C)C)NC(=O)[C@@H](Cc2ccccc2)NC(=O)[C@H](CCN)NC1=O)[C@@H](C)O [Compound 30] (H-C(Ethyl(2-butanoyloxy))[Dab]T[Dab][Dab][Dab][dF]L[Dab][Dab]T; lactam 5-C) |  |  |  |  |  |  | 
